From patent US6447801B1, “Anti-parasitic action of N,N-diethyl-m-toluamide (deet) and formulations that prolong its activity in the skin” (priority 1997, dated 2002)
Read-outs that look alike come from different tables or passages of the source.

Tests used:
[1] = tested on: cercariae; details: in tissue culture / in vitro, cited from earlier work
[2] = Disposition of 14C-DEET and 14C-Lipodeet after skin application (skin, blood, urine, bedding radioactivity)
Method: In this series of experiments, 11.472 mg of ^14C-DEET of ^14C-Lipodeet (in 100 μl) was applied to 5 cm^2 area of the mice abdominal skin. At different time points (15 min, 30 min, 60 min, 2 hrs., 4 hrs., 24 hrs., 48 hrs. and 72 hrs.) after application, the whole area of skin where the lipodeet had been applied was collected, underlying tissue removed and the radioactivity measured in a Beckman β-counter. Samples of blood and urine were also collected at these time points from each mouse to measure the radioactivity (n=10 for each time point). […] In this study, we made observations only up to 72 hrs. […] There are two possibilities, (1) substantial quantities of both DEET and Lipodeet are absorbed systemically through the skin within 24 hrs., or (2) both the chemicals are lost in the bedding due to direct contact of the applied area to the bedding materials. The first hypothesis was tested by measuring ^14C levels in the blood and urine in these animals.

Row | Compound | cercaricidal effect [1] | further results
1 | CCCCCCCCCCCC(=O)N(CC)CC [N,N-diethyl lauramide] | significant cercaricidal effect | 
2 | C[C@@H]1CC[C@H]2C(C)(C)[C@H]3C[C@@]12CC[C@@]3(C)O [Cederol] | significant cercaricidal effect | 
3 | O=C(Nc1ccc([N+](=O)[O-])cc1Cl)c1cc(Cl)ccc1O [Niclosamide] | significant cercaricidal effect | 
4 | O=C(OCc1ccccc1)c1ccccc1 [benzyl benzoate] | significant cercaricidal effect | 
5 | Oc1c(Cl)cc(Cl)c(Cl)c1Cc1c(O)c(Cl)cc(Cl)c1Cl [hexachlorophene] | significant cercaricidal effects | cercaricidal effect ([1]; listed as hexachlorophere): significant cercaricidal effect
6 | CCN(CC)C(=O)c1cccc(C)c1 [^14C-DEET] |  | urine radioactivity ([2]; 15 minutes after application): > 5.7×10^7 cpm/ml; radio label in the blood ([2]; within 15 minutes after application): Significant quantity of the radio label was present in the blood
7 | CCCCOC(=O)c1ccccc1C(=O)OCCCC [dibutyl phthalate] | significant cercaricidal effect | 
